Data reported in US5491151A, “Antitumor treatment method” (Kabushiki Kaisha Hayashibara Seibutsu Kagaku Kenkyujo, priority 1989, dated 1996).

How the values were obtained:
Acute toxicity (LD50) = type: in vivo; conditions: mouse, in vivo, 7 days
Experimental: (§1) Either of Compounds No.1-8 in Table I was dissolved or suspended in saline containing 5% gum arabic, and a group of ddy mice, about 10-20 g each, received an intraperitoneal or oral administration of the resultant mixture occasionally through a stomach tube, followed by monitoring and counting dead mice for an additional 7 days to determine respective LD50 value in accordance with the Van der Waerden's method.

Meth A ascitic tumor = assay: Synergistic effect by the combination with hyperthermia (growth inhibition of Meth A tumor); type: in vivo, BALB/c mice; conditions: 20 ng/0.1 ml/animal s.c. twice a week; for Mean wet weight of tumor: 40th day; for Growth inhibitory rate for tumor (%): control = 100
Experimental: More particularly, 6 week-old BALB/c mice were subcutaneously transplanted in their femoral area with 2×10^5 cells/animal of Meth A cell. […] Immediately after every administration, the tumoral sites of the mice were soaked in about 42° C. water bath for about 60 minutes. On the 40th day after the transplantation, the mean wet weight of tumor was determined by the method in Experiment 2-2.
Separately, one of other groups was administered with either cyanine dye, and determined for its mean wet weight of tumor, while one another group was first administered with saline, then subjected to hyperthermia, followed by determining the mean wet weight of tumor.
Control group was subcutaneously injected with 0.1 ml saline in the femoral area.
The mean wet weights of tumor were put into the following equation to calculate the growth inhibitory rate for tumor (%) which was then used to evaluate any synergistic effect by the combination of cyanine dye and hyperthermia. [formula]

macrophage = assay: Activation of macrophage by cyanine dye (adherent ascites cells of treated mice cultured with Meth A ascitic tumor cells, 3H-thymidine incorporation); type: cell-based, BALB/c mice; conditions: 50 ng/0.2 ml/animal intraperitoneal to mice, cells collected two days later
Experimental: Two days after the administration, the ascites of the mice were extracted, and the cells which adhered onto plastic Petri dish were collected.
Control group was intraperitoneally administered with 0.2 ml saline.
Thereafter, the incorporation of ^3 H-thymidine in the tumor cell was determined by conventional method, and the growth inhibitory rate for tumor (%) was calculated with the following equation.

[1] = system: Meth A ascitic tumor cell; assay: Antitumor effect on tumor-bearing mouse (life-span increasing effect, Meth A ascitic tumor); type: in vivo, BALB/c mice; conditions: for Mean survival days: i.p. twice a week over 40 days, * significant to control at 5% or lower; for Increase in life-span (T/C %) / Survivals after 40 days: i.p.; for Increase in life-span (T/C %): control = 100; for Survivals after 40 days: group of seven mice
Experimental: Compounds No.1, 7 and 8 in Table I were evaluated for their antitumor activity using as the criterion the life-span increasing effect on tumor-bearing mice which had received the transplantation of Meth A ascitic tumor cell.
More particularly, 8 week-old male BALB/c mice were intraperitoneally transplanted with 1×10^5 cells/mouse of Meth A cell. Ten days after the transplantation, a group of seven mice with a successful transplantation were intraperitoneally administered with either Compound No.1, 7 or 8 in Table I twice a week over a period of 40 days while monitoring the mice.
Control group was intraperitoneally administered with 0.2 ml saline in accordance with the same administration schedule.
The rate of increase in life-span (T/C %) under the above conditions was calculated from the mean survival days found for the test group (T) and control group (C). [formula]

MC-1 cell = assay: Antitumor effect by growth inhibition of tumor (MC-1, with or without light-irradiation); type: in vivo, C57BL/6 mice; conditions: for Mean wet weight of tumor: 27th day, * significant at 5% or lower; for Rate of survival (%): 35th day
Experimental: Compounds No.1, 7 and 8 in Table I were evaluated for their antitumor activity using as the criterion the growth inhibitory effect on MC-1 cell, a methylcholanthrene-induced syngenic tumor.
Eight week-old female C57BL/6 mice were subcutaneously transplanted in their dorsum area with 1×10^5 cells/animal of MC-1 cell. Five days after the transplantation, a group of seven mice with a successful transplantation were subcutaneously administered with either Compound No.1, 7 or 8 in Table I twice a week over a period of 25 days while monitoring the mice.
One another group of mice were light-irradiated with 100 W medical infrared lamp (100 V) placed about one meter in apart immediately after every administration of either Compound No.1, 7 or 8.
Control group was subcutaneously administered with 0.2 ml saline in accordance with the same administration schedule.
On the 27th day after the transplantation, the wet weight of tumor was determined by the method in Y. Shimosato and N. Tamaoki, Human Cancer and Nude mice, pp. 321-323, published by Ishiyaku Publishers Inc., Tokyo, Japan (1982), as well as monitoring the rate (%) of survivals on the 35th day.

ddy mice = assay: Acute toxicity (LD50); type: in vivo; conditions: 7 days
Experimental: as §1

[2] = ip, intraperitoneal administration
[3] = combined with hyperthermia (about 42° C., 60 minutes)
[4] = 0.5 ng/0.2 ml/animal s.c., combined with light-irradiation
[5] = 0.5 ng/0.2 ml/animal s.c., no light-irradiation
[6] = 5 ng/0.2 ml/animal s.c., combined with light-irradiation
[7] = 5 ng/0.2 ml/animal s.c., no light-irradiation
[8] = 50 ng/0.2 ml/animal s.c., combined with light-irradiation
[9] = 50 ng/0.2 ml/animal s.c., no light-irradiation
[10] = intraperitoneal administration, 10080 min

Structure (SMILES)	LD50 at 168 h (Acute toxicity (LD50); [2]) [mg/kg]	LD50 at 168 h (Acute toxicity (LD50); po, oral administration) [mg/kg]	Mean wet weight of tumor (Meth A ascitic tumor; [3]) [g]	Growth inhibitory rate for tumor (%) (Meth A ascitic tumor; combined with hyperthermia)	Mean wet weight of tumor (Meth A ascitic tumor; no hyperthermia) [g]	Growth inhibitory rate for tumor (%) (Meth A ascitic tumor; no hyperthermia)	Growth inhibitory rate (%) (macrophage)	Mean survival days ([1]; 0.5 ng/0.2 ml/animal) [days]	Increase in life-span (T/C %) ([1]; 0.5 ng/0.2 ml/animal) [%]	Survivals after 40 days ([1]; 0.5 ng/0.2 ml/animal)	Mean survival days ([1]; 5 ng/0.2 ml/animal) [days]	Increase in life-span (T/C %) ([1]; 5 ng/0.2 ml/animal) [%]	Survivals after 40 days ([1]; 5 ng/0.2 ml/animal)	Mean survival days ([1]; 50 ng/0.2 ml/animal) [days]	Increase in life-span (T/C %) ([1]; 50 ng/0.2 ml/animal) [%]	Survivals after 40 days ([1]; 50 ng/0.2 ml/animal)	Mean wet weight of tumor (MC-1 cell; [4]) [g]	Rate of survival (%) (MC-1 cell; [4])	LD50 (ddy mice; [10]) [mg/kg body weight]	LD50 (ddy mice; oral administration) [g/kg body weight]	other results
CCCCN1C=CC(=CC=C(C=Cc2cc[n+](CCCC)c3ccccc23)c2cc[n+](CCCC)c3ccccc23)c2ccccc21	84	≥ 4000	0.62 ± 0.45	12.6	3.35 ± 1.75	68.2	37.6	31.1 ± 4.2	105	0	42.9 ± 6.0	145	5	39.9 ± 5.4	135	4	3.3 ± 0.6	85.7			Mean wet weight of tumor (MC-1 cell; [5]): 4.7 ± 1.0 g; Rate of survival (%) (MC-1 cell; [5]): 71.4%; Mean wet weight of tumor (MC-1 cell; [6]): 1.9 ± 0.8 g; Rate of survival (%) (MC-1 cell; [6]): 100%; Mean wet weight of tumor (MC-1 cell; [7]): 3.5 ± 0.8 g; Rate of survival (%) (MC-1 cell; [7]): 100%; Mean wet weight of tumor (MC-1 cell; [8]): 2.6 ± 0.5 g; Rate of survival (%) (MC-1 cell; [8]): 100%; Mean wet weight of tumor (MC-1 cell; [9]): 4.0 ± 0.4 g; Rate of survival (%) (MC-1 cell; [9]): 85.7%
CCN1C=CC(=CC=C(C=Cc2cc[n+](CC)c3ccccc23)c2cc[n+](CC)c3ccccc23)c2ccccc21 [Compound No.1, [bis-4-(ethylquinoline)][γ-4'-(1-ethylquinoline)] pentamethine cyanine diiodide]	34	≥ 4000	0.12 ± 0.15	2.4	3.24 ± 1.45	65.9	25.1	36.1 ± 4.3	122	2	48.9 ± 4.2	165	7	45.6 ± 4.2	154	6	2.8 ± 0.3	100			Mean wet weight of tumor (MC-1 cell; [5]): 4.1 ± 0.5 g; Rate of survival (%) (MC-1 cell; [5]): 85.7%; Mean wet weight of tumor (MC-1 cell; [6]): 0.8 ± 0.1 g; Rate of survival (%) (MC-1 cell; [6]): 100%; Mean wet weight of tumor (MC-1 cell; [7]): 3.1 ± 0.4 g; Rate of survival (%) (MC-1 cell; [7]): 100%; Mean wet weight of tumor (MC-1 cell; [8]): 1.5 ± 0.3 g; Rate of survival (%) (MC-1 cell; [8]): 100%; Mean wet weight of tumor (MC-1 cell; [9]): 3.7 ± 0.2 g; Rate of survival (%) (MC-1 cell; [9]): 100%
CCN1C=CC(=CC=C(C=Cc2cc[n+](CC)c3ccccc23)c2cc[n+](CC)c3ccccc23)c2ccccc21 [compound 2]							44.5												30	≥ 4.0	
CCN1C=CC(=CC=C(C=Cc2cc[n+](CC)c3ccccc23)c2cc[n+](CC)c3ccccc23)c2ccccc21 [compound 5]							27.5												28	≥ 4.0	
CN1C=CC(=CC=C(C=Cc2cc[n+](C)c3ccccc23)c2cc[n+](C)c3ccccc23)c2ccccc21 [compound 6]	65	≥ 4000					41.8														
CCN1C=CC(=CC=C(C=Cc2cc[n+](CC)c3ccccc23)c2cc[n+](CC)c3ccccc23)c2ccccc21 [compound 4]							36.2												37	≥ 4.0	
CCN1C=CC(=CC=C(C=Cc2cc[n+](CC)c3ccccc23)c2cc[n+](CC)c3ccccc23)c2ccccc21 [compound 3]							32.3												31	≥ 4.0	
CN1C(=CC=C(C=Cc2sc3ccccc3[n+]2C)c2sc3ccccc3[n+]2C)Sc2ccccc21 [Compound No.8]	40	≥ 4000	0.90 ± 0.66	18.3	3.40 ± 1.38	69.2	27.3	34.4 ± 5.7	116	1	49.3 ± 5.6	167	7	43.7 ± 4.0	148	6	2.9 ± 0.7	100			Mean wet weight of tumor (MC-1 cell; [5]): 3.6 ± 0.4 g; Rate of survival (%) (MC-1 cell; [5]): 71.4%; Mean wet weight of tumor (MC-1 cell; [6]): 0.5 ± 0.5 g; Rate of survival (%) (MC-1 cell; [6]): 100%; Mean wet weight of tumor (MC-1 cell; [7]): 2.9 ± 0.9 g; Rate of survival (%) (MC-1 cell; [7]): 100%; Mean wet weight of tumor (MC-1 cell; [8]): 1.2 ± 0.2 g; Rate of survival (%) (MC-1 cell; [8]): 100%; Mean wet weight of tumor (MC-1 cell; [9]): 3.5 ± 0.5 g; Rate of survival (%) (MC-1 cell; [9]): 85.7%
